Results published in ChEMBL document CHEMBL1795262, “Pyrazole-based sulfonamide and sulfamides as potent inhibitors of mammalian 15-lipoxygenase” (Bioorg Med Chem Lett, 2011).
Values after ≈ are worked out from the molar mass of the structure shown.

Legend:
[1] = target: T1, Polyunsaturated fatty acid lipoxygenase ALOX15 (Homo sapiens) (UniProt P16050); assay: Inhibition of human 15-LO expressed in CHO cells at 1 uM by cell-based assay
T1 sequence (whole entry): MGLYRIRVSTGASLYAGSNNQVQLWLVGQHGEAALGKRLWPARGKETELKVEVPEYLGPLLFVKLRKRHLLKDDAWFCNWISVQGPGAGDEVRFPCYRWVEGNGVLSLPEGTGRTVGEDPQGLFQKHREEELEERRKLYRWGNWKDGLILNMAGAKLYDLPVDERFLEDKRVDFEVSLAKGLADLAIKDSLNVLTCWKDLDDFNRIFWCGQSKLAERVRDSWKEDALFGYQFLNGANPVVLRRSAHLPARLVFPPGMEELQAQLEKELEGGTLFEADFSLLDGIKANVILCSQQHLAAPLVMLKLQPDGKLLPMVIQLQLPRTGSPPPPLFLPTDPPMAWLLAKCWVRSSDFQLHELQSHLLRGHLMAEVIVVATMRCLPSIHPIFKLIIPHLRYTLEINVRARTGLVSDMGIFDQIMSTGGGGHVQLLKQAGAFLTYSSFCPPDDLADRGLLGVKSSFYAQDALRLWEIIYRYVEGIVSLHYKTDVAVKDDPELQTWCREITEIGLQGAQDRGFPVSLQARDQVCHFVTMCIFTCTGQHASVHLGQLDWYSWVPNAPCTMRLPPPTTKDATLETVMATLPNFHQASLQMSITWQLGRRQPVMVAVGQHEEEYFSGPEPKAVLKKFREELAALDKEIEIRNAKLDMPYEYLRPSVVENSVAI

[2] = species on record: Oryctolagus cuniculus; assay: Inhibition of 15-HETE production in New Zealand White rabbit whole blood at 10 uM by RP-HPLC; assay type: functional
[3] = target: T2, Polyunsaturated fatty acid lipoxygenase ALOX15 (Oryctolagus cuniculus, UniProt P12530); assay: Inhibition of rabbit 15-LO using arachidonic acid by standard colorimetric assay
T2 sequence (P12530 whole entry): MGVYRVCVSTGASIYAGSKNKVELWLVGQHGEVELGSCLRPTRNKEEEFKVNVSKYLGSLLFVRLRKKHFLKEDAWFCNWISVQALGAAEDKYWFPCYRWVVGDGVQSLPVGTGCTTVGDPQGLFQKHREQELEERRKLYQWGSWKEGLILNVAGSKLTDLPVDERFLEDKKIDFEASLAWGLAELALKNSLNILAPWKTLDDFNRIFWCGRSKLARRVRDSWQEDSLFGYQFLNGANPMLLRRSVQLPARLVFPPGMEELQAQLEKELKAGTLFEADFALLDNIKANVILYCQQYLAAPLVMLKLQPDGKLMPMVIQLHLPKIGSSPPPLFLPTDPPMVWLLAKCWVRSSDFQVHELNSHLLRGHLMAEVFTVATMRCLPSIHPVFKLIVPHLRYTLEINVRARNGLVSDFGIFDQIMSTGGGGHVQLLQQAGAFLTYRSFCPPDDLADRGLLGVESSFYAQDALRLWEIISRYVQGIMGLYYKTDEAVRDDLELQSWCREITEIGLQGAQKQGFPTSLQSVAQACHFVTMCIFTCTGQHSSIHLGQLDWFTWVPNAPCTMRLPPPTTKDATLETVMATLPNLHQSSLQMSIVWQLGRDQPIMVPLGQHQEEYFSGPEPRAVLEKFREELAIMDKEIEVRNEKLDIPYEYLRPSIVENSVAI

[4] = target: T2, Polyunsaturated fatty acid lipoxygenase ALOX15; assay: Inhibition of rabbit 15-LO using linoleic acid by standard colorimetric assay
[5] = Aqueous solubility of the compound in water at pH 6.5
[6] = target: T3, Polyunsaturated fatty acid lipoxygenase ALOX12 (Homo sapiens) (UniProt P18054); assay: Inhibition of 12-LO at 10 uM
T3 sequence (whole entry): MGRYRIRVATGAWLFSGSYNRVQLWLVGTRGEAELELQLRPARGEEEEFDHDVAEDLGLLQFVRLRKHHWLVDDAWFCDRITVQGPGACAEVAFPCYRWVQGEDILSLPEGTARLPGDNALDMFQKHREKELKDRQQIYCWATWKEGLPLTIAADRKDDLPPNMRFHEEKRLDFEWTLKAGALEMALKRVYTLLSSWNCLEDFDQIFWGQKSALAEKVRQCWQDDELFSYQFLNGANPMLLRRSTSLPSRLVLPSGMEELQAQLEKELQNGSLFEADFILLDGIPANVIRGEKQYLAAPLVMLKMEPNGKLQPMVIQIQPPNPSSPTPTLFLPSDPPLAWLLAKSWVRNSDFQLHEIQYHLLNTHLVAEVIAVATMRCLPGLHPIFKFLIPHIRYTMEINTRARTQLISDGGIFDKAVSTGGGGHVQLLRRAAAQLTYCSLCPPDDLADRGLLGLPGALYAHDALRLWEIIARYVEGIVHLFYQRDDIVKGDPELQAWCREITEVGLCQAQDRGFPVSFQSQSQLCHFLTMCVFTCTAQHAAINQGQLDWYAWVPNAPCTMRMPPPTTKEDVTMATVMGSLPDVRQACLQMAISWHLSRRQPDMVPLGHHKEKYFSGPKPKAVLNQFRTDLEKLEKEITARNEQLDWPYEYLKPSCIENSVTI

[7] = species on record: Oryctolagus cuniculus; assay: Inhibition of 15-HETE production in New Zealand White rabbit whole blood at 3 uM by RP-HPLC; assay type: functional
[8] = target: T1, Polyunsaturated fatty acid lipoxygenase ALOX15 (Homo sapiens); assay: Inhibition of human 15-LO expressed in CHO cells at 3 uM by cell-based assay
[9] = target: T4, Polyunsaturated fatty acid 5-lipoxygenase (Homo sapiens) (UniProt P09917); assay: Inhibition of 5-LO at 10 uM
T4 sequence (whole entry): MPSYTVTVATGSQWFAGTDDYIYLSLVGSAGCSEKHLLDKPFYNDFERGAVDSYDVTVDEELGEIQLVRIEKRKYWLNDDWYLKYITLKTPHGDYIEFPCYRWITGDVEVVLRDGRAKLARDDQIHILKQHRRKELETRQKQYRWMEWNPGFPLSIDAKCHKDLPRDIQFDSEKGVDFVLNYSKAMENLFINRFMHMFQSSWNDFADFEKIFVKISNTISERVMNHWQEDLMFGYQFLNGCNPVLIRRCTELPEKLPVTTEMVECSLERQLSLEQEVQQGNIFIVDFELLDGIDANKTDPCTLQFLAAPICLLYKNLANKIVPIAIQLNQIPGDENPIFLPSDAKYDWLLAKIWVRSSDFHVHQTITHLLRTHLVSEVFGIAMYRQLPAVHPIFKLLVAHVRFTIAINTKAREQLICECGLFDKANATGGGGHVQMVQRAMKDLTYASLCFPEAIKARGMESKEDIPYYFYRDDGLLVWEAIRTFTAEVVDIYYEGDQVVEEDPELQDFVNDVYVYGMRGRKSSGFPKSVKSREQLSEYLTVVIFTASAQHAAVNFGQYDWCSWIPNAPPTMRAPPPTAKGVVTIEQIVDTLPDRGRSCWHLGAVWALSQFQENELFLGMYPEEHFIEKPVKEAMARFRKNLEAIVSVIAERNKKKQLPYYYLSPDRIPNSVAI

[10] = species on record: Oryctolagus cuniculus; assay: Inhibition of 15-HETE production in New Zealand White rabbit whole blood at 1 uM by RP-HPLC; assay type: functional
[11] = target: T5, Polyunsaturated fatty acid 5-lipoxygenase (Homo sapiens, UniProt P09917); assay: Inhibition of 5-LO
T5 sequence (P09917 whole entry): T4 sequence (whole entry)

| IC50 [3] | IC50 [4] | SMILES | other results |
| --- | --- | --- | --- |
| 4.3 nM | 1.5 nM | COc1cccc(-c2[nH]nc(-c3cccs3)c2CCNS(=O)(=O)N(C)[C@@H]2CCN(Cc3ccccc3)C2)c1 | inhibition [1]: 51%; inhibition at 10 µM [2]: 43% |
|  | 1220 nM | CCCCCc1ccc(S(=O)(=O)NCCc2c(-c3ccccc3OC)n[nH]c2-c2ccccc2)cc1 |  |
| 65 nM | 12 nM | CCCCCc1ccc(S(=O)(=O)NCCc2c(-c3cccs3)n[nH]c2-c2cnccn2)cc1 |  |
| 19 nM | 4 nM | CCCCCc1ccc(S(=O)(=O)NCCc2c(-c3cccs3)n[nH]c2-c2cccs2)cc1 | solubility [5]: 0.2 µg/mL (≈ 0.412 µM); inhibition at 10 µM [2]: 25%; inhibition [6]: 35% |
| 7 nM | 3 nM | CN([C@@H]1CCN(Cc2ccccc2)C1)S(=O)(=O)NCCc1c(-c2cccs2)n[nH]c1-c1cnccn1 | solubility [5]: 79 µg/mL (≈ 151 µM); inhibition [1]: 81%; inhibition at 3 µM [7]: 51% |
|  | 305 nM | CCCCCc1ccc(S(=O)(=O)NCCc2c(-c3ccc(OC)cc3)n[nH]c2CC(C)C)cc1 |  |
| 7 nM | 2 nM | CN([C@@H]1CCN(Cc2ccccc2)C1)S(=O)(=O)NCCc1c(-c2cccs2)n[nH]c1-c1cccs1 | inhibition [1]: 79%; inhibition at 3 µM [7]: 40% |
| 36 nM | 10 nM | CCCCCc1ccc(S(=O)(=O)NCCc2c(-c3cccs3)n[nH]c2-c2cc(C)on2)cc1 |  |
| 8.2 nM | 5.3 nM | CCN([C@@H]1CCN([C@H](C)c2ccccc2)C1)S(=O)(=O)NCCc1c(-c2cccs2)n[nH]c1-c1cnccn1 | solubility [5]: 71 µg/mL (≈ 129 µM); inhibition [8]: 61%; inhibition at 10 µM [2]: 55%; inhibition [6]: 38%; inhibition [9]: 68% |
| 918 nM | 158 nM | CCCCCc1ccc(S(=O)(=O)NCCc2c(-c3ccccc3)n[nH]c2Cc2ccccc2)cc1 |  |
| 313 nM | 35 nM | CCCCCc1ccc(S(=O)(=O)NCCc2c(-c3ccccc3)n[nH]c2-c2ccccc2)cc1 |  |
| 524 nM | 68 nM | CCCCCc1ccc(S(=O)(=O)NCCc2c(-c3ccccc3)n[nH]c2-c2cccc(OC)c2)cc1 |  |
| 28 nM | 11 nM | CCCCCc1ccc(S(=O)(=O)NCCc2c(-c3cccs3)n[nH]c2-c2ccccc2)cc1 |  |
|  |  | CCN([C@@H]1CCN(C(C)c2ccc(F)cc2)C1)S(=O)(=O)NCCc1c(-c2cccs2)n[nH]c1-c1cnccn1 (some centres undefined) | solubility [5]: 129 µg/mL (≈ 226 µM); inhibition [6]: 16%; inhibition at 3 µM [7]: 73%; inhibition at 1 µM [10]: 45% |
| 4.1 nM | 2.7 nM | CCN([C@@H]1CCN(C(C)(C)c2ccccc2)C1)S(=O)(=O)NCCc1c(-c2cccs2)n[nH]c1-c1cnccn1 | solubility [5]: 71 µg/mL (≈ 125 µM); inhibition [8]: 83%; inhibition at 10 µM [2]: 63%; inhibition [6]: 35%; inhibition [9]: 60% |
| 7.5 nM | 3.6 nM | CN([C@@H]1CCN(Cc2ccccc2)C1)S(=O)(=O)NCCc1c(-c2cccs2)n[nH]c1-c1ccccc1 | inhibition at 10 µM [2]: 44% |
| 53 nM | 9 nM | CCCCCc1ccc(S(=O)(=O)NCCc2c(-c3cccs3)n[nH]c2-c2cccc(OC)c2)cc1 |  |
| 15 nM | 4.2 nM | Cc1cc(-c2[nH]nc(-c3cccs3)c2CCNS(=O)(=O)N(C)[C@@H]2CCN(Cc3ccccc3)C2)no1 | inhibition at 10 µM [2]: 71% |
|  | 3980 nM | CCCCCc1ccc(S(=O)(=O)NCCc2c(-c3ccc(OC)cc3)n[nH]c2C)cc1 |  |
| 1560 nM | 150 nM | CCCCCc1ccc(S(=O)(=O)NCCc2c(-c3ccccc3)n[nH]c2-c2ccc(OC)cc2)cc1 |  |
| 2.4 nM | 1.8 nM | CCN([C@@H]1CCN([C@@H](C)c2ccccc2)C1)S(=O)(=O)NCCc1c(-c2cccs2)n[nH]c1-c1cnccn1 | solubility [5]: 76 µg/mL (≈ 138 µM); inhibition [8]: 94%; inhibition [6]: 32%; IC50 [11]: 5.5 µM; inhibition at 3 µM [7]: 69%; inhibition at 1 µM [10]: 39% |
